# Results published in US5457114A, “Amidinophenylalanine derivatives, a process for the preparation thereof, use thereof and agents containing these as anticoagulants” (Behringwerke Aktiengesellschaft, priority 1991, dated 1995).
# How the values were obtained:
# [1] = rat, i.v.
# human thrombin = human thrombin (Homo sapiens, UniProt P00734); assay: Determination of the inhibition constants for thrombin; format: biochemical; conditions: human thrombin 100 pM, 0.1 mM substrate S2238, pH 7.8, 37 degrees C., 10 min preincubation
# Procedure: The inhibition constants (Ki) for the substances were determined by known enzyme kinetic methods. The purity of the human thrombin employed was determined to be 87% by means of active site titration. […] Inhibitor and enzyme were preincubated for 10 minutes, and the reaction was started by adding the chromogenic substrate S2238.
# The specificity of the inhibitors for thrombin and trypsin was determined. The specificity is defined as the ratio of the Ki values for trypsin and thrombin (Table II). […] The Ki values were calculated ([…]) from the IC50 value for thrombin and trypsin. The specificities emerged from the ratio of the trypsin and thrombin values.
# [2] = target: T1, Trypsin from bovine pancreas (Bos taurus, UniProt P00760); assay: Determination of the specificity of the inhibitors (trypsin versus thrombin); format: biochemical; conditions: ratio of the Ki values for trypsin and thrombin; Ki calculated from IC50
# T1 construct: from tissue; host or cells: bovine pancreas
# T1 sequence (P00760 24-246): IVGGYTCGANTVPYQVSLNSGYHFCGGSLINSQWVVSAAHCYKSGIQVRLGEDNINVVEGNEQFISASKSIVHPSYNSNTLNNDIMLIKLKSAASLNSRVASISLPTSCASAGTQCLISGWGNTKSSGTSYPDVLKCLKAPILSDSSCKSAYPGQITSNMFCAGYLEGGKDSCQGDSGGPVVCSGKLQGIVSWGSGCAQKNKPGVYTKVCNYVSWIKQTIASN
# Procedure: The specificity of the inhibitors for thrombin and trypsin was determined. The specificity is defined as the ratio of the Ki values for trypsin and thrombin (Table II). […] The enzymatic reaction was started by adding the substrate Chromozym TRY (7.1×10^-5 M). The liberation of pNA was measured at 405 nm after one hour. The IC50 values for thrombin were determined in an analogous manner, with the exceptions that human thrombin, buffer (50 mM tris-HCl, 50 mM NaCl, pH 7.8) and 5×10^-5 M S 2238 were used. The Ki values were calculated ([…]) from the IC50 value for thrombin and trypsin. The specificities emerged from the ratio of the trypsin and thrombin values.
# Enteral administration = conditions: in vivo
Ki (human thrombin) [nM],Specificity thrombin/trypsin [2],possibility of enteral administration (Enteral administration),Molecule,LD50 [1]
–,–,–,"N=C(N)c1ccc(CC(NC(=O)[C@H](CC(=O)O)NS(=O)(=O)c2ccc3ccccc3c2)C(=O)N2CCCCC2)cc1 (stereo partly drawn) [β-naphthylsulfonyl-L-Asp-D,L-Aph-Pip, β-Naphthylsulfonyl-L-Asp-D,L-Aph-Pip]",about 120 mg/kg
0.6,378,–,"COc1cc(C)c(S(=O)(=O)N[C@@H](CC(=O)OC(C)C)C(=O)N[C@H](Cc2ccc(C(=N)N)cc2)C(=O)N2CCCCC2)c(C)c1C [Mtr-Asp(iPr)-Aph-Pip, Mtr-L-Asp(OiPr)-D-Aph-Pip]",–
0.9,297,–,"COc1cc(C)c(S(=O)(=O)NC(CC(=O)OC(C)(C)C)C(=O)NC(Cc2ccc(C(=N)N)cc2)C(=O)N2CCCCC2)c(C)c1C [Mtr-Asp(tBu)-Aph-Pip, Mtr-L-Asp(OtBu)-D-Aph-Pip]",–
0.6,150,–,"4-Methoxy-2,3,6-trimethylphenylsulfonyl-L-Cys(SO3 H)-D-p-amidinophenylalanyl Piperidide [Mtr-L-Cys (SO3 H)-D-Aph-Pip]",–
1.5,125,possibility of enteral administration,"COc1cc(C)c(S(=O)(=O)N[C@@H](CC(=O)O)C(=O)N[C@H](Cc2ccc(C(=N)N)cc2)C(=O)N2CCCCC2)c(C)c1C [Mtr-Asp-D-Aph-Pip, 4-Methoxy-2,3,6-trimethylphenylsulfonyl-L-Asp-D-p-amidinophenylalanyl Piperidide]",–
6,230,–,"COc1cc2ccc(S(=O)(=O)N[C@@H](CC(=O)O)C(=O)N[C@H](Cc3ccc(C(=N)N)cc3)C(=O)N3CCCCC3)cc2cc1OC [Dmn-Asp-D-Aph-Pip, 6,7-Dimethoxy-β-naphthalenesulfonyl-L-Asp-D-p-amidinophenylalanyl Piperidide]",–
0.085,4106,–,"COc1cc(C)c(S(=O)(=O)N[C@@H](CC(=O)N[C@@H]2O[C@H](C(=O)O)[C@@H](O)[C@H](O)[C@H]2O)C(=O)N[C@H](Cc2ccc(C(=N)N)cc2)C(=O)N2CCCCC2)c(C)c1C [4-Methoxy-2,3,6-trimethylphenylsulfonyl-L-asparaginyl-N-[β-D-glucopyranosyl)uronic acid]-D-p-amidinophenylalanyl Piperidide]",–

Molecule,Ki (human thrombin) [nM],Specificity thrombin/trypsin [2],possibility of enteral administration (Enteral administration),LD50 [1]
"N=C(N)c1ccc(CC(NC(=O)CNS(=O)(=O)c2ccc3ccccc3c2)C(=O)N2CCCCC2)cc1 (stereo not drawn) [Napap, beta-naphthylsulfonyl-glycyl-R,S-4-amidinophenylalanyl piperidide, reference compound]",–,24,–,–
"COc1cc(C)c(S(=O)(=O)N[C@@H](CC(=O)NCCCC(=O)O)C(=O)N[C@H](Cc2ccc(C(=N)N)cc2)C(=O)N2CCCCC2)c(C)c1C [4-Methoxy-2,3,6-trimethylbenzenesulfonyl-L-aspartic Acid (Gamma-aminobutyric Acid)-D-Aph-piperidide]",0.8,1810,–,–
Beta-Naphthylsulfonyl-L-aspartic Acid D-p-amidinophenyl-alanyl-piperidide [Nas-Asp-D-Aph-Pip],10,7,–,–
N=C(N)c1ccc(C[C@H](NC(=O)[C@H](CC(N)=O)NS(=O)(=O)c2ccc3ccccc3c2)C(=O)N2CCCCC2)cc1 [Nas-Asn-Aph-Pip],6,48,–,–
